Source: patent publication US10941157B2, “Pesticidal compositions and uses thereof” (Gilead Apollo, LLC, priority 2015, dated 2021)
≈ marks a conversion by molar mass, not a printed value. Where two headings read alike, the source gives them in different places.

What was measured:
Assay type in all cases: cell-based
Botrtyis cinerea (Bc) = test: In vitro pathogen growth inhibition assay, Bc; conditions: 48 h
Summary of the method: (§1)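 Spores in 17% V8 liquid medium, or 1.5 mm Rs mycelial plugs in ¼ PDB, incubated with compound; final concentration checked by OD600 for precipitation. OD readings at 24 and 48 h, blank-subtracted, plus visual ratings; value is concentration giving ≥90% growth inhibition.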

[1] = tested on: Collectotrichum graminicola (Cg); test: In vitro pathogen growth inhibition assay, Cg; conditions: 48 h
Summary of the method: as §1

Diplodia maydis (Dm) = test: In vitro pathogen growth inhibition assay, Dm; conditions: Stenocarpella maydis, 48 h
Summary of the method: (§2)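 Value reported is the compound concentration reaching ≥90% growth inhibition, from OD readings at 24 and 48 h after blank subtraction, confirmed visually. Inoculum was spores diluted in 17% V8 medium, except Rs, using 1.5 mm mycelial plugs in ¼ PDB; actual compound concentration corrected via OD600.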

[2] = tested on: Fusarium moniliforme (Fm); test: In vitro pathogen growth inhibition assay, Fm; conditions: Fusarium verticillioides
Summary of the method: as §1

[3] = tested on: Fusarium virguliforme (Fv); test: In vitro pathogen growth inhibition assay, Fv
Summary of the method: as §2

[4] = tested on: Phytophthora capsici (Pc); test: In vitro pathogen growth inhibition assay, Pc; conditions: 48 h
Summary of the method: as §2

Rhizoctonia solani (Rs) = test: In vitro pathogen growth inhibition assay, Rs (mycelial plugs); conditions: Rhizoctonia solani, 48 h, mycelial plugs
Summary of the method: as §2

Septoria tritici (St) = test: In vitro pathogen growth inhibition assay, St; conditions: Zymoseptoria tritici, 48 h
Summary of the method: as §1

[5] = ≥90% growth inhibition, 48 hours, vs 2% DMSO control, read-out: Compound Concentration (ppm) sufficient for ≥90% inhibition of Bc
[6] = ≥90% growth inhibition, 48 hours, vs 2% DMSO control, read-out: Compound Concentration (ppm) sufficient for ≥90% inhibition of Cg
[7] = ≥90% growth inhibition, 48 hours, vs 2% DMSO control, read-out: Compound Concentration (ppm) sufficient for ≥90% inhibition of Dm
[8] = ≥90% growth inhibition, 48 hours, vs 2% DMSO control, read-out: Compound Concentration (ppm) sufficient for ≥90% inhibition of Fm
[9] = ≥90% growth inhibition, 48 hours, vs 2% DMSO control, read-out: Compound Concentration (ppm) sufficient for ≥90% inhibition of Fv
[10] = ≥90% growth inhibition, 48 hours, vs 2% DMSO control, read-out: Compound Concentration (ppm) sufficient for ≥90% inhibition of Pc
[11] = ≥90% growth inhibition, 48 hours, vs 2% DMSO control, read-out: Compound Concentration (ppm) sufficient for ≥90% inhibition of Rs
[12] = ≥90% growth inhibition, 48 hours, vs 2% DMSO control, read-out: Compound Concentration (ppm) sufficient for ≥90% inhibition of St
[13] = ≥90% inhibition, 48 hours vs 2% DMSO control, read-out: Compound Concentration (ppm) sufficient for ≥90% inhibition of growth, Bc
[14] = ≥90% inhibition, 48 hours vs 2% DMSO control, read-out: Compound Concentration (ppm) sufficient for ≥90% inhibition of growth, Cg
[15] = ≥90% inhibition, 48 hours vs 2% DMSO control, read-out: Compound Concentration (ppm) sufficient for ≥90% inhibition of growth, Dm
[16] = ≥90% inhibition, 48 hours vs 2% DMSO control, read-out: Compound Concentration (ppm) sufficient for ≥90% inhibition of growth, Fm
[17] = ≥90% inhibition, 48 hours vs 2% DMSO control, read-out: Compound Concentration (ppm) sufficient for ≥90% inhibition of growth, Fv
[18] = ≥90% inhibition, 48 hours vs 2% DMSO control, read-out: Compound Concentration (ppm) sufficient for ≥90% inhibition of growth, Pc
[19] = ≥90% inhibition, 48 hours vs 2% DMSO control, read-out: Compound Concentration (ppm) sufficient for ≥90% inhibition of growth, Rs
[20] = ≥90% inhibition, 48 hours vs 2% DMSO control, read-out: Compound Concentration (ppm) sufficient for ≥90% inhibition of growth, St

Compound | IC90 (Botrtyis cinerea (Bc); [5]) [µg/mL] | IC90 [1, 6] [µg/mL] | IC90 (Diplodia maydis (Dm); [7]) [µg/mL] | IC90 [2, 8] [µg/mL] | IC90 [3, 9] [µg/mL] | IC90 [4, 10] [µg/mL] | IC90 (Rhizoctonia solani (Rs); [11]) [µg/mL] | IC90 (Septoria tritici (St); [12]) [µg/mL] | IC90 (Botrtyis cinerea (Bc); [13]) [µg/mL] | IC90 [1, 14] [µg/mL] | IC90 (Diplodia maydis (Dm); [15]) [µg/mL] | IC90 [2, 16] [µg/mL] | IC90 [3, 17] [µg/mL] | IC90 [4, 18] [µg/mL] | IC90 (Rhizoctonia solani (Rs); [19]) [µg/mL] | IC90 (Septoria tritici (St); [20]) [µg/mL]
COc1ccc(F)cc1[C@H](Cn1c(=O)n([C@@H](C)C(=O)N(C)C(C)C)c(=O)c2c(C)c(-n3cccn3)sc21)OCCC#N [Compound I-243] | 10 (≈ 16.8 µM) | 2 (≈ 3.35 µM) | 10 (≈ 16.8 µM) | 2 (≈ 3.35 µM) | 50 (≈ 83.8 µM) | > 50 | 2 (≈ 3.35 µM) | ≥ 50 | – | – | – | – | – | – | – | –
COc1ccc(F)cc1[C@H](Cn1c(=O)n([C@H](C)C(=O)N(C)C(C)C)c(=O)c2c(C)c(-n3cccn3)sc21)OCCO [Compound I-250] | 2 (≈ 3.4 µM) | 10 (≈ 17 µM) | > 50 | 2 (≈ 3.4 µM) | 2 (≈ 3.4 µM) | > 50 | 2 (≈ 3.4 µM) | > 50 | – | – | – | – | – | – | – | –
COc1ccc(F)cc1[C@H](Cn1c(=O)n([C@@H](C)C(=O)N(C)C(C)C)c(=O)c2c(C)c(-n3nccn3)sc21)OCCC#N [Compound I-204] | 2 (≈ 3.35 µM) | 10 (≈ 16.7 µM) | 2 (≈ 3.35 µM) | 0.4 (≈ 0.669 µM) | 2 (≈ 3.35 µM) | > 50 | 2 (≈ 3.35 µM) | > 50 | – | – | – | – | – | – | – | –
COc1ccc(F)cc1[C@H](Cn1c(=O)n(C(C)(C)C(=O)NC(C)C)c(=O)c2c(C)c(-n3cccn3)sc21)OC[C@@H](C)O [Compound I-134] | – | – | – | – | – | – | – | – | 2 (≈ 3.32 µM) | 0.4 (≈ 0.665 µM) | ≥ 2 | 0.4 (≈ 0.665 µM) | 2 (≈ 3.32 µM) | ≥ 10 | ≥ 0.4 | ≥ 10
COc1ccccc1CCn1c(=O)n(C(C)(C)C(=O)NC(C)C)c(=O)c2c(C)c(-n3nccn3)sc21 [Compound I-294] | 0.4 (≈ 0.783 µM) | 10 (≈ 19.6 µM) | 10 (≈ 19.6 µM) | 0.4 (≈ 0.783 µM) | 0.08 (≈ 0.157 µM) | > 50 | 2 (≈ 3.92 µM) | > 50 | – | – | – | – | – | – | – | –
COc1ccc(F)cc1[C@H](Cn1c(=O)n(C(C)(C)C(=O)NC(C)C)c(=O)c2c(C)c(-n3nccn3)sc21)OC[C@H](C)O [Compound I-066] | – | – | – | – | – | – | – | – | ≥ 0.4 | ≥ 0.4 | ≥ 0.4 | 0.08 (≈ 0.133 µM) | 0.4 (≈ 0.664 µM) | 50 (≈ 83 µM) | ≥ 0.4 | ≥ 10
COc1ccc(F)cc1[C@H](Cn1c(=O)n(C(C)(C)C(=O)N2CCCC2)c(=O)c2c(C)c(-n3nccn3)sc21)OC1CCC(=O)CC1 [Compound I-051] | – | – | – | – | – | – | – | – | 0.4 (≈ 0.613 µM) | 0.4 (≈ 0.613 µM) | ≥ 0.4 | 0.08 (≈ 0.123 µM) | 0.4 (≈ 0.613 µM) | > 50 | 0.4 (≈ 0.613 µM) | > 50
COc1ccc(F)cc1[C@@H](O)Cn1c(=O)n([C@H](C)C(=O)N2CCCC2)c(=O)c2c(C)c(-n3nccn3)sc21 [Compound I-222] | 2 (≈ 3.69 µM) | 2 (≈ 3.69 µM) | 10 (≈ 18.4 µM) | 0.4 (≈ 0.737 µM) | 0.4 (≈ 0.737 µM) | > 50 | 0.4 (≈ 0.737 µM) | 50 (≈ 92.2 µM) | – | – | – | – | – | – | – | –
CCOC(=O)c1sc2c(c1C)c(=O)n(C(C)(C)C(=O)NC(C)C)c(=O)n2C[C@H](OCCOC)c1cc(F)ccc1OC [Compound I-177] | 2 (≈ 3.29 µM) | 2 (≈ 3.29 µM) | 2 (≈ 3.29 µM) | 0.08 (≈ 0.132 µM) | 0.4 (≈ 0.658 µM) | > 50 | 10 (≈ 16.5 µM) | > 50 | – | – | – | – | – | – | – | –
COc1ccc(F)cc1[C@H](Cn1c(=O)n(C(C)(C)C(=O)NC(C)C)c(=O)c2c(C)c(-n3nccn3)sc21)OC1CCC(=O)CC1 [Compound I-050] | – | – | – | – | – | – | – | – | 0.08 (≈ 0.125 µM) | 2 (≈ 3.12 µM) | ≥ 0.08 | 0.08 (≈ 0.125 µM) | 0.4 (≈ 0.624 µM) | 50 (≈ 78 µM) | 0.08 (≈ 0.125 µM) | > 50
COc1ccc(F)cc1[C@H](Cn1c(=O)n(C(C)(C)C(N)=O)c(=O)c2c(C)c(-n3cccn3)sc21)OC1CCC(=O)CC1 [Compound I-170] | 10 (≈ 16.7 µM) | ≥ 50 | 50 (≈ 83.7 µM) | ≥ 2 | > 50 | > 50 | 50 (≈ 83.7 µM) | > 50 | – | – | – | – | – | – | – | –
